{
  "source": "patent US20070292387A1",
  "about": "“TRANSMUCOSAL DELIVERY OF PHARMACEUTICAL ACTIVE SUBSTANCES” (GWANGJU INSTITUTE OF SCIENCE AND TECHNOLOGY, priority 2006, published 2007)",
  "key": {"Diabetes-induced rats [1]": {"system": "Diabetes-induced rats", "test": "Bioavailability calculated from degree of blood glucose control (AUC) after oral administration", "type": "in vivo, rat", "details": "insulin 1.77 mg/kg, protease inhibitor not added", "procedure": "(§1) An insulin-chitosan conjugate (a conjugate using chitosan of MW 3000, 6000 or 9000 Da) was dissolved in a citrate buffer solution and then diluted with physiological saline to prepare an insulin-chitosan conjugate solution at an insulin concentration of 100 U/mL. Diabetes-induced rats were fasted for 6 hours, and blood was collected from the tail veins of animals and the blood glucose level was determined. The thus-obtained value was used as an initial value prior to administration of the drug. The experimental animals were given oral administration of the above-prepared insulin-chitosan conjugate solution at a dose of 50 IU/kg using a gastric sonde (50 IU is equivalent to 1.77 mg of insulin). As a control, animals were given oral administration of 50 IU/kg insulin and chitosan of MW 9000 Da in the same manner as above. On time points of 1, 2, 3, and 4 hours after administration of the drug, blood was collected from the tail veins of animals and the blood glucose level was determined. The blood glucose level at each time point was calculated by taking the initial value prior to administration of the drug to be 100%.\nThen, the bioavailability of conjugates were calculated from the degree of blood glucose control (area under curve, AUC) obtained in FIG. 2 after oral administration of each insulin-chitosan conjugate. […] In addition, as a control, known bioavailability of insulin, a protease-chitosan conjugate and a thiolated chitosan-insulin tablet preparation containing glutathione (a reducing agent) (Krauland A H, et al., J. Control Release, 24; 95(3):547-555 (2004)) was compared."}, "Diabetes-induced rats [2]": {"system": "Diabetes-induced rats", "test": "In vivo oral administration of insulin-chitosan conjugate (blood glucose level)", "design": "species or system rat", "details": "FIG. 2", "procedure": "as §1"}, "[3]": {"test": "Plasma paclitaxel after single oral dose with or without P-gp inhibitor cyclosporine A", "type": "in vivo, ICR mice", "procedure": "ICR mice (male, 25-30 g) were fasted for 12 hr before dosing. Mice were anesthetized with diethyl ether and administered with a single oral dose of paclitaxel or paclitaxel-chitosan conjugates with or without P-gp inhibitor (cyclosporine A, Sigma, 15 mg/kg) through an oral gavage that was carefully passed down the esophagus into the stomach. The drug solutions were prepared in 10% DMSO solution. The total volume of the administered drug solution was 0.2 ml. Blood (450 μl) was collected from a capillary in the retroorbital plexus and directly mixed with 50 Al of sodium citrate (3.8% solution); the sample was then immediately centrifuged at 3000 rpm at 4° C. for 20 min. The concentrations of paclitaxel in plasma were measured using HPLC after extraction."}, "[4]": {"details": "oral, cited from earlier work"}, "B16F10 melanoma cells": {"system": "B16F10 melanoma cells", "test": "Oral administration in B16F10 melanoma allograft (tumor size, survival)", "type": "in vivo, C57BL6 male mice", "details": "oral 25 mg/kg, 5 days on, 2 days off, about 30 days; FIG. 7", "method": "B16F10 melanoma cells were subcutaneously transplanted at a cell density of 5×10^6 cells/mice into a dorsal region of C57BL6 male mice (mean body weight: 25 g). […] Experiments were carried out for mouse groups, each consisting of 5 to 6 animals having the tumor, simultaneously with observation of changes. Animals were given oral administration of the drug or physiological saline for about 30 days, starting on day 10 after tumor transplantation. […] The control group was administered physiological saline, paclitaxel and chitosan. In order to confirm the degree of tumor growth, the size of tumor was daily measured using a calibrator. The tumor size was calculated according to the following Equation (2): Tumor volume (mm^3)=(Length×Width^2)/2 (Equation 2).\nThe survival rate of mice was also monitored simultaneously with measurement of the tumor size. When the tumor mass reached a size of more than 8000 mm^3, the animals were euthanized."}},
  "note": "Read-outs that look alike come from different tables or passages of the source.",
  "data": [
    {"molecule": "Insulin-9K LMWC: insulin-chitosan conjugate using low molecular weight chitosan of MW 9000 Da", "values": [
      {"measurement": "Bioavailability (%) (IV injection: 100%)", "setting": "Diabetes-induced rats [1]", "value": "1.0 ± 0.13", "unit": "%"},
      {"measurement": "Bioavailability (%) (SC injection: 100%)", "setting": "Diabetes-induced rats [1]", "value": "3.69 ± 0.29", "unit": "%"}
    ]},
    {"molecule": "insulin-chitosan conjugate: insulin (B29 lysine) bound via -CO-(CH2)2-S-S-(CH2)2-CO- linker to chitosan of MW 3000, 6000 or 9000", "values": [
      {"measurement": "decrease in the blood glucose level compared to the initial blood glucose level", "setting": "Diabetes-induced rats [2]; 50 IU insulin/kg, 2 hours later", "value": "> 40", "unit": "%"}
    ]},
    {"molecule": "insulin", "values": [
      {"measurement": "lowering of the blood glucose levels (in words)", "setting": "Diabetes-induced rats [2]; insulin 50 IU/kg, chitosan of MW 9000 Da", "value": "no lowering of the blood glucose levels"}
    ]},
    {"molecule": "Insulin-3K LMWC: insulin-chitosan conjugate using low molecular weight chitosan of MW 3000 Da", "values": [
      {"measurement": "Bioavailability (%) (SC injection: 100%)", "setting": "Diabetes-induced rats [1]", "value": "1.89 ± 0.32", "unit": "%"}
    ]},
    {"molecule": "Insulin-6K LMWC: insulin-6 KDa low molecular weight chitosan conjugate", "values": [
      {"measurement": "Bioavailability (%) (IV injection: 100%)", "setting": "Diabetes-induced rats [1]", "value": "0.77 ± 0.16", "unit": "%"},
      {"measurement": "Bioavailability (%) (SC injection: 100%)", "setting": "Diabetes-induced rats [1]", "value": "2.66 ± 0.38", "unit": "%"}
    ]},
    {"molecule": "CC(=O)O[C@H]1C(=O)[C@@]2(C)[C@H]([C@H](OC(=O)c3ccccc3)[C@]3(O)C[C@H](OC(=O)[C@H](O)[C@@H](NC(=O)c4ccccc4)c4ccccc4)C(C)=C1C3(C)C)[C@]1(OC(C)=O)CO[C@@H]1C[C@@H]2O", "note": "[paclitaxel]", "values": [
      {"measurement": "increase of maximum plasma concentration (Cmax) when coadministrated with cyclosporine A", "setting": "[3]; cyclosporine A 15 mg/kg, FIG. 6a", "value": 9.3, "unit": "fold"},
      {"measurement": "Cmax", "setting": "[3]; male, ICR, mouse, plasma, without cyclosporine A, conjugate chitosan MW 6000, read-out: maximum plasma concentration (Cmax) of paclitaxel", "value": "90 ± 20", "unit": "ng/mL"},
      {"measurement": "bioavailability of paclitaxel", "setting": "[4]; PTX only", "value": "4-10%"},
      {"measurement": "bioavailability of paclitaxel", "setting": "[4]; combined with a P-gp inhibitor such as cyclosporin A or Valspodar", "value": "50-60%"},
      {"measurement": "tumor size compared to the control group", "setting": "B16F10 melanoma cells", "value": "no significant difference in the tumor size"}
    ]}
  ]
}
